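Five compound concentrations were applied to cells in 96-well plates for 48 hours; endpoints were derived by simple linear interpolation of the resulting dose-response curve. GI50 is the concentration that inhibits growth by half. At the TGI there is no net growth.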
Legend:
Assay in all cases: NCI tumour cell line growth inhibition, 48 h
786-0 renal = tested on: 786-0 renal
A498 renal = tested on: A498 renal
A549 NSCLC = tested on: A549 NSCLC
ACHN renal = tested on: ACHN renal
BT-549 breast = tested on: BT-549 breast
CAKI-1 renal = tested on: CAKI-1 renal
CCRF-CEM leukemia = tested on: CCRF-CEM leukemia
DU-145 prostate = tested on: DU-145 prostate
EKVX NSCLC = tested on: EKVX NSCLC
HCC-2998 colon = tested on: HCC-2998 colon
HCT-116 colon = tested on: HCT-116 colon
HCT-15 colon = tested on: HCT-15 colon
HL-60(TB) leukemia = tested on: HL-60(TB) leukemia
HOP-62 NSCLC = tested on: HOP-62 NSCLC
HOP-92 NSCLC = tested on: HOP-92 NSCLC
HS 578T breast = tested on: HS 578T breast
HT29 colon = tested on: HT29 colon
IGROV1 ovarian = tested on: IGROV1 ovarian
KM12 colon = tested on: KM12 colon
M14 melanoma = tested on: M14 melanoma
MALME-3M melanoma = tested on: MALME-3M melanoma
MDA-MB-231 breast = tested on: MDA-MB-231 breast
MDA-MB-435 = tested on: MDA-MB-435
NCI-H226 lung = tested on: NCI-H226 lung
NCI-H23 lung = tested on: NCI-H23 lung
NCI-H460 lung = tested on: NCI-H460 lung
NCI-H522 lung = tested on: NCI-H522 lung
NCI/ADR-RES ovarian = tested on: NCI/ADR-RES ovarian
OVCAR-3 ovarian = tested on: OVCAR-3 ovarian
OVCAR-4 ovarian = tested on: OVCAR-4 ovarian
OVCAR-5 ovarian = tested on: OVCAR-5 ovarian
PC-3 prostate = tested on: PC-3 prostate
RPMI-8226 leukemia = tested on: RPMI-8226 leukemia
RXF 393 renal = tested on: RXF 393 renal
SF-268 CNS = tested on: SF-268 CNS
SF-295 CNS = tested on: SF-295 CNS
SF-539 CNS = tested on: SF-539 CNS
SK-MEL-2 melanoma = tested on: SK-MEL-2 melanoma
SK-MEL-28 melanoma = tested on: SK-MEL-28 melanoma
SK-MEL-5 melanoma = tested on: SK-MEL-5 melanoma
SK-OV-3 ovarian = tested on: SK-OV-3 ovarian
SN12C renal = tested on: SN12C renal
SNB-19 CNS = tested on: SNB-19 CNS
SNB-75 CNS = tested on: SNB-75 CNS
SW-620 colon = tested on: SW-620 colon
TK-10 renal = tested on: TK-10 renal
U251 CNS = tested on: U251 CNS
UACC-257 melanoma = tested on: UACC-257 melanoma
UACC-62 melanoma = tested on: UACC-62 melanoma
UO-31 renal = tested on: UO-31 renal
COLO 205 colon = tested on: COLO 205 colon
LOX IMVI melanoma = tested on: LOX IMVI melanoma
MCF7 breast = tested on: MCF7 breast
OVCAR-8 ovarian = tested on: OVCAR-8 ovarian

## Cn1cc(-c2csc(-c3c[nH]c4ccccc34)n2)c2cnccc21
786-0 renal
  GI50: 1900 nM
  TGI: 3440 nM
A498 renal
  GI50: 1890 nM
  TGI: 3580 nM
A549 NSCLC
  GI50: 2470 nM
  TGI: 5880 nM
ACHN renal
  GI50: 1930 nM
  TGI: 3770 nM
BT-549 breast
  GI50: 1780 nM
  TGI: 3590 nM
CAKI-1 renal
  GI50: 2080 nM
  TGI: 4710 nM
CCRF-CEM leukemia
  GI50: 2400 nM
  TGI: 6420 nM
DU-145 prostate
  GI50: 2240 nM
  TGI: 5650 nM
EKVX NSCLC
  GI50: 1920 nM
  TGI: 4610 nM
HCC-2998 colon
  GI50: 2010 nM
  TGI: 3610 nM
HCT-116 colon
  GI50: 1730 nM
  TGI: 3220 nM
HCT-15 colon
  GI50: 1790 nM
  TGI: 3600 nM
HL-60(TB) leukemia
  GI50: 2170 nM
  TGI: 4770 nM
HOP-62 NSCLC
  GI50: 1790 nM
  TGI: 3450 nM
HOP-92 NSCLC
  GI50: 1520 nM
  TGI: 3280 nM
HS 578T breast
  GI50: 2210 nM
  TGI: 4720 nM
HT29 colon
  GI50: 2010 nM
  TGI: 4260 nM
IGROV1 ovarian
  GI50: 1730 nM
  TGI: 3550 nM
KM12 colon
  GI50: 1650 nM
  TGI: 3410 nM
M14 melanoma
  GI50: 1840 nM
  TGI: 3460 nM
MALME-3M melanoma
  GI50: 1940 nM
  TGI: 3620 nM
MDA-MB-231 breast
  GI50: 1670 nM
  TGI: 3220 nM
MDA-MB-435
  GI50: 1870 nM
  TGI: 3430 nM
NCI-H226 lung
  GI50: 17100 nM
  TGI: 45400 nM
NCI-H23 lung
  GI50: 1770 nM
  TGI: 3970 nM
NCI-H460 lung
  GI50: 1850 nM
  TGI: 3610 nM
NCI-H522 lung
  GI50: 2020 nM
  TGI: 3910 nM
NCI/ADR-RES ovarian
  GI50: 2400 nM
  TGI: 5440 nM
OVCAR-3 ovarian
  GI50: 1960 nM
  TGI: 3560 nM
OVCAR-4 ovarian
  GI50: 2300 nM
  TGI: 6520 nM
OVCAR-5 ovarian
  GI50: 2620 nM
  TGI: 5520 nM
PC-3 prostate
  GI50: 2400 nM
  TGI: 6310 nM
RPMI-8226 leukemia
  GI50: 2140 nM
  TGI: 5000 nM
RXF 393 renal
  GI50: 1630 nM
  TGI: 3110 nM
SF-268 CNS
  GI50: 1970 nM
  TGI: 3930 nM
SF-295 CNS
  GI50: 1810 nM
  TGI: 3370 nM
SF-539 CNS
  GI50: 1790 nM
  TGI: 3290 nM
SK-MEL-2 melanoma
  GI50: 2100 nM
  TGI: 3810 nM
SK-MEL-28 melanoma
  GI50: 1800 nM
  TGI: 3250 nM
SK-MEL-5 melanoma
  GI50: 1760 nM
  TGI: 3180 nM
SK-OV-3 ovarian
  GI50: 1900 nM
  TGI: 3720 nM
SN12C renal
  GI50: 1740 nM
  TGI: 3310 nM
SNB-19 CNS
  GI50: 2070 nM
  TGI: 4110 nM
SNB-75 CNS
  GI50: 12900 nM
  TGI: 26200 nM
SW-620 colon
  GI50: 1980 nM
  TGI: 3690 nM
TK-10 renal
  GI50: 2740 nM
  TGI: 5100 nM
U251 CNS
  GI50: 1950 nM
  TGI: 3720 nM
UACC-257 melanoma
  GI50: 2000 nM
  TGI: 3720 nM
UACC-62 melanoma
  GI50: 1820 nM
  TGI: 3320 nM
UO-31 renal
  GI50: 1640 nM
  TGI: 3350 nM

## C#CC[C@@H]1C[C@]2(C)[C@H]3CC[C@@H]4[C@H]5C(C(=C)C)CC[C@]5(C(=O)NCCCCN)CC[C@@]4(C)[C@]3(C)CC[C@H]2C(C)(C)[C@H]1OC(C)=O (stereo not given in full)
A498 renal
  GI50: 1780 nM
  TGI: 3190 nM
ACHN renal
  GI50: 1650 nM
  TGI: 3010 nM
BT-549 breast
  GI50: 1760 nM
  TGI: 3340 nM
CAKI-1 renal
  GI50: 1600 nM
  TGI: 3070 nM
COLO 205 colon
  GI50: 1680 nM
  TGI: 3300 nM
EKVX NSCLC
  GI50: 1840 nM
  TGI: 3780 nM
HCT-15 colon
  GI50: 1730 nM
  TGI: 3450 nM
HOP-62 NSCLC
  GI50: 1910 nM
  TGI: 4070 nM
HS 578T breast
  GI50: 1820 nM
  TGI: 3810 nM
HT29 colon
  GI50: 1900 nM
  TGI: 4040 nM
IGROV1 ovarian
  GI50: 1730 nM
  TGI: 3350 nM
KM12 colon
  GI50: 1810 nM
  TGI: 3360 nM
LOX IMVI melanoma
  GI50: 1560 nM
  TGI: 3000 nM
M14 melanoma
  GI50: 1770 nM
  TGI: 3460 nM
MALME-3M melanoma
  GI50: 1680 nM
  TGI: 3330 nM
MCF7 breast
  GI50: 1670 nM
  TGI: 3860 nM
MDA-MB-231 breast
  GI50: 1790 nM
  TGI: 3450 nM
MDA-MB-435
  GI50: 1730 nM
  TGI: 3190 nM
NCI-H226 lung
  GI50: 2030 nM
  TGI: 4840 nM
NCI-H23 lung
  GI50: 1850 nM
  TGI: 3530 nM
NCI-H460 lung
  GI50: 1910 nM
  TGI: 3710 nM
NCI-H522 lung
  GI50: 1800 nM
  TGI: 3670 nM
NCI/ADR-RES ovarian
  GI50: 1820 nM
  TGI: 3980 nM
OVCAR-3 ovarian
  GI50: 1780 nM
  TGI: 3330 nM
OVCAR-4 ovarian
  GI50: 1760 nM
  TGI: 3330 nM
OVCAR-5 ovarian
  GI50: 1670 nM
  TGI: 3060 nM
OVCAR-8 ovarian
  GI50: 2210 nM
  TGI: 5340 nM
PC-3 prostate
  GI50: 1640 nM
  TGI: 3170 nM
RPMI-8226 leukemia
  GI50: 2100 nM
  TGI: 5060 nM
RXF 393 renal
  GI50: 1550 nM
  TGI: 3140 nM
SF-268 CNS
  GI50: 1850 nM
  TGI: 3930 nM
SF-295 CNS
  GI50: 1840 nM
  TGI: 3410 nM
SF-539 CNS
  GI50: 1660 nM
  TGI: 3110 nM
SK-MEL-2 melanoma
  GI50: 1710 nM
  TGI: 3400 nM
SK-MEL-28 melanoma
  GI50: 1760 nM
  TGI: 3250 nM
SK-MEL-5 melanoma
  GI50: 1800 nM
  TGI: 3270 nM
SK-OV-3 ovarian
  GI50: 1940 nM
  TGI: 3540 nM
SN12C renal
  GI50: 1730 nM
  TGI: 3340 nM
SNB-75 CNS
  GI50: 1410 nM
  TGI: 2780 nM
SW-620 colon
  GI50: 1830 nM
  TGI: 3740 nM
TK-10 renal
  GI50: 1860 nM
  TGI: 3480 nM
U251 CNS
  GI50: 1810 nM
  TGI: 3510 nM
UACC-257 melanoma
  GI50: 1890 nM
  TGI: 3770 nM
UACC-62 melanoma
  GI50: 1820 nM
  TGI: 3260 nM
UO-31 renal
  GI50: 1560 nM
  TGI: 2950 nM

Source: PubChem BioAssay (NCI)
